# Results published in PubChem BioAssay AID652249 (Broad Institute, 2013).
# Inconclusive results are not listed. Activity calls are given as the source filed them.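 Rule for the calls: active = platelet aggregation inhibition above 50% relative to unstimulated and buffer-only controls; inactive = the rest, inconclusive results apart.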
# Tested on: human washed platelets, SFLLRN-induced aggregation, aggregometer
# Test: blockade of human platelet clumping – cell-based, aggregometer, single point, dry powder samples, mechanism study for PDI inhibitor project, late-stage follow-up (AID 652249)
# Conditions: at 30 µM; stronger effect = higher value
row,SMILES,aggregation inhibition (transmittance)
1,C/C1=C\C[C@H](OC(=O)c2ccc(O)cc2)/C(C)=C/[C@@H](O)C(C)(C)CCC1,100%
2,CCOC(=O)C1(CCOc2ccccc2)CCN(Cc2ccc(O)cc2)CC1,0% (inactive)
3,O=C(NC1CCCC1)C1(CCOc2ccccc2)CCN(Cc2ccc(O)c(Cl)c2)CC1,1% (inactive)
4,CC(C)(C)OC(=O)C1(CCOc2ccccc2)CCN(Cc2ccc(O)c(Cl)c2)CC1,100%
5,CCOC(=O)C1(CCOc2ccccc2)CCN(C(=O)c2ccc(O)c(Cl)c2)CC1,100%
6,C/C1=C\[C@@H](O)C(C)(C)CCCC2(C)OC2C[C@@H]1OC(=O)c1ccc(O)cc1 (stereo not given in full),17% (inactive)
7,CC(C)OC(=O)C1(CCOc2ccccc2)CCN(Cc2ccc(O)c(Cl)c2)CC1,97%
8,CCN(C)C(=O)C1(CCOc2ccccc2)CCN(Cc2ccc(O)c(Cl)c2)CC1,2% (inactive)
9,CCOC(=O)C1(CCOc2ccccc2)CCN(Cc2ccc(OC)c(Cl)c2)CC1,4% (inactive)
10,O=C(Nc1ccccc1)C1(CCOc2ccccc2)CCN(Cc2ccc(O)c(Cl)c2)CC1,23% (inactive)
